What was measured:
Format in all cases: biochemical
[1] = biological target: T1, HDAC6 (Homo sapiens, UniProt Q9UBN7); assay: HDAC6 inhibition, full IC50 measurement (Reaction Biology; fluorogenic p53 peptide RHKK(Ac)AMC)
T1 construct: purchased Reaction Biology Corporation (assay run by the CRO)
T1 sequence (Q9UBN7 1-1215): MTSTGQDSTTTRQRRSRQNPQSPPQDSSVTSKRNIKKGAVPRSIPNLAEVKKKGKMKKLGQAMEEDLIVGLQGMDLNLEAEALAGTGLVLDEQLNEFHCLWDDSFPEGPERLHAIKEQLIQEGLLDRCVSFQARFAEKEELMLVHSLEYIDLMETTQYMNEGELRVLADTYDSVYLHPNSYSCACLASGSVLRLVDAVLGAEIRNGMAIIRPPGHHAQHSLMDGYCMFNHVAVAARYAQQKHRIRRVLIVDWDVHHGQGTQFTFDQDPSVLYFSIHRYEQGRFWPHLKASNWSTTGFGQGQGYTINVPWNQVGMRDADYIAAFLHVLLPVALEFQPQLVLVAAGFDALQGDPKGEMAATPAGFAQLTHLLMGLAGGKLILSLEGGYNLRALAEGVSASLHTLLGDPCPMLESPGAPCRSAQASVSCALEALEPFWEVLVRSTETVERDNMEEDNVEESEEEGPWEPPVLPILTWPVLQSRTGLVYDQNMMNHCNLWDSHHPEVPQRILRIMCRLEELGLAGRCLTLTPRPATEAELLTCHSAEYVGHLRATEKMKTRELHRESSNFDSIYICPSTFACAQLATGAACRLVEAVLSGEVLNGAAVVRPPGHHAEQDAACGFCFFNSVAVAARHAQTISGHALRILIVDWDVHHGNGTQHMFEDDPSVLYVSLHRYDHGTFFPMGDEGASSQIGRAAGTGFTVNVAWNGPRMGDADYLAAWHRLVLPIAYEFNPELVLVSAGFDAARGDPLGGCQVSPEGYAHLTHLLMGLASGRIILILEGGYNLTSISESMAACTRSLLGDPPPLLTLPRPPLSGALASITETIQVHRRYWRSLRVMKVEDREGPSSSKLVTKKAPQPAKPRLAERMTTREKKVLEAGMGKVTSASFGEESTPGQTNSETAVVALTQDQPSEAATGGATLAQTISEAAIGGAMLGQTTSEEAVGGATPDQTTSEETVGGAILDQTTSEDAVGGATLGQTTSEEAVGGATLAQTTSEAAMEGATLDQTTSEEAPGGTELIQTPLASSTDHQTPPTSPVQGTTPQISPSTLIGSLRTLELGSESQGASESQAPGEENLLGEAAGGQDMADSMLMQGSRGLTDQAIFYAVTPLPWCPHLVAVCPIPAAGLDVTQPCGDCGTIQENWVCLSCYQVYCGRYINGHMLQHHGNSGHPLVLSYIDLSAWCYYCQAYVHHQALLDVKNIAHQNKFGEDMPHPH
In short: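 Reaction: enzyme plus acoustically dispensed peptide inhibitor, 50 μM RHKK(Ac)AMC substrate, pH 8.0 Tris buffer with BSA and 1% DMSO, 1 h, 30 °C. Duplicates averaged.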

[2] = biological target: T2, HDAC4 (Homo sapiens, UniProt P56524); assay: HDAC4 inhibition/binding test (BPS Biosciences HDAC fluorogenic assay kit)
T2 construct: purchased BPS Biosciences
T2 sequence (P56524 whole entry): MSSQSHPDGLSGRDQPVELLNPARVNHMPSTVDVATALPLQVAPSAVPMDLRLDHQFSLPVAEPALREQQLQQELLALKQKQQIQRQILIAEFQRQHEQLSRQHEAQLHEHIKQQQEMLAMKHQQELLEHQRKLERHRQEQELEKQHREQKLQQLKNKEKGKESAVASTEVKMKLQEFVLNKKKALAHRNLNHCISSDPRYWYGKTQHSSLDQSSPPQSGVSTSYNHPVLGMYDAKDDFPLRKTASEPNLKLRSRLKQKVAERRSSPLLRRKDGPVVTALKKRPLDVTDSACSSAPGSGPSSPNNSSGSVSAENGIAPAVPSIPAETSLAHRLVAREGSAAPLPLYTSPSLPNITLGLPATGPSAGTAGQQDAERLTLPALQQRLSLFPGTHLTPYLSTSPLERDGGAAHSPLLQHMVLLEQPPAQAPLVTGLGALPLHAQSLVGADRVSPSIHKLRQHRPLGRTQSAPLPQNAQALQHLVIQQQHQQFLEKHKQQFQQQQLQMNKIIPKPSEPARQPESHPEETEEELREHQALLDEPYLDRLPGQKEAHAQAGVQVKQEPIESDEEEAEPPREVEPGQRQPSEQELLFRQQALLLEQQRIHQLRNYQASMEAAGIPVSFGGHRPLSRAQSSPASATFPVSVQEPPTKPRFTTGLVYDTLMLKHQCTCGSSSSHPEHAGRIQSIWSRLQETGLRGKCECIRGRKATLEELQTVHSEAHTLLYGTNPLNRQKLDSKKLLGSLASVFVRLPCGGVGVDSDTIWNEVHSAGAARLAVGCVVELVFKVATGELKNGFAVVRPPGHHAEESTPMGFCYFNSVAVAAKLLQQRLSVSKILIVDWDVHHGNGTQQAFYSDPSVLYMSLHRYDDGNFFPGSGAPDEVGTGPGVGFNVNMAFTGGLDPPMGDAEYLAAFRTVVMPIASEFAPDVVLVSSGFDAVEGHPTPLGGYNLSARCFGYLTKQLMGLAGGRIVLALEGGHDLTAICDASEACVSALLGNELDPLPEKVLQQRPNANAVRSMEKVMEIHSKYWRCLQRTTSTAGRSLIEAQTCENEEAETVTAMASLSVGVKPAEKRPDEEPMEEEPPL

[3] = biological target: T3, HDAC10 (Homo sapiens, UniProt Q969S8); assay: HDAC10 profiling of SHA anchor
T3 sequence (Q969S8 1-669): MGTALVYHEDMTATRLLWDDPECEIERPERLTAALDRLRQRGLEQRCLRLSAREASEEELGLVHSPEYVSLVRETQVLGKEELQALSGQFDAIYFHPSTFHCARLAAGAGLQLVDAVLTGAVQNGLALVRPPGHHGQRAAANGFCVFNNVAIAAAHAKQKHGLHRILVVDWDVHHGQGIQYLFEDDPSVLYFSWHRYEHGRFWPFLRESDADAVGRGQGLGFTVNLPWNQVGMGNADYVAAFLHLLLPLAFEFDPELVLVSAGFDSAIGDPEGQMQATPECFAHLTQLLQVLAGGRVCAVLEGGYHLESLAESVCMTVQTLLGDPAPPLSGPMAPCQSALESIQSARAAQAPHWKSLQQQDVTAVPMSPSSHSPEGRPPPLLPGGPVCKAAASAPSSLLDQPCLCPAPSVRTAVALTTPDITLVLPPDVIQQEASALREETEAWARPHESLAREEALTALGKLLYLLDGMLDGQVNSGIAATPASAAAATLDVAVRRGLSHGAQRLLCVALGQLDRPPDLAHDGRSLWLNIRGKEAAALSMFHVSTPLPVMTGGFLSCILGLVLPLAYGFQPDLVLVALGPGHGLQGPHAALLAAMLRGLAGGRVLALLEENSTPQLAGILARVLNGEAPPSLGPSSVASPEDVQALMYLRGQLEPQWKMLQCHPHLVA
Source text: Supplement 41467_2021_23609_MOESM7_ESM.zip/HDACActivity_RawData.xlsx, sheet "SHA" | column: HDAC10

What does the source list for N[C@@H](CCCCCS)C(=O)O [SHA, 2S-2-amino-7-sulfanylheptanoic acid]?
HDAC6 inhibition potency in words [1]: low micro-molar to high nano-molar affinities; HDAC6 raw activity signal ([1]; Conc. 1.00E-05 M): 33328; HDAC6 raw activity signal ([1]; Conc. 1.11E-06 M): 230710; HDAC6 raw activity signal ([1]; Conc. 1.23E-07 M): 527992; HDAC6 raw activity signal ([1]; Conc. 1.37E-08 M): 589576; HDAC6 raw activity signal ([1]; Conc. 1.52E-09 M): 605039; HDAC6 raw activity signal ([1]; Conc. 3.33E-06 M): 100537; HDAC6 raw activity signal ([1]; Conc. 3.70E-07 M): 381738; HDAC6 raw activity signal ([1]; Conc. 4.12E-08 M): 574853; HDAC6 raw activity signal ([1]; Conc. 4.57E-09 M): 596934; HDAC6 raw activity signal ([1]; Conc. 5.08E-10 M): 614098; IC50 ([1]; read-out: HDAC6 IC50): 600 nM; binding to HDAC4 [2]: not detected binding; HDAC4 raw activity signal ([2]; Conc. 1.00E-05 M): 1818034; HDAC4 raw activity signal ([2]; Conc. 1.11E-06 M): 1589038; HDAC4 raw activity signal ([2]; Conc. 1.23E-07 M): 1682923; HDAC4 raw activity signal ([2]; Conc. 1.37E-08 M): 1569641; HDAC4 raw activity signal ([2]; Conc. 1.52E-09 M): 1604062; HDAC4 raw activity signal ([2]; Conc. 3.33E-06 M): 1651123; HDAC4 raw activity signal ([2]; Conc. 3.70E-07 M): 1661788; HDAC4 raw activity signal ([2]; Conc. 4.12E-08 M): 1863011; HDAC4 raw activity signal ([2]; Conc. 4.57E-09 M): 1554862; HDAC4 raw activity signal ([2]; Conc. 5.08E-10 M): 1555289; HDAC10 raw activity signal ([3]; Conc. 1.00E-05 M): 78535; HDAC10 raw activity signal ([3]; Conc. 1.11E-06 M): 200617; HDAC10 raw activity signal ([3]; Conc. 1.23E-07 M): 227566; HDAC10 raw activity signal ([3]; Conc. 1.37E-08 M): 231393; HDAC10 raw activity signal ([3]; Conc. 1.52E-09 M): 230961; HDAC10 raw activity signal ([3]; Conc. 3.33E-06 M): 158362; HDAC10 raw activity signal ([3]; Conc. 3.70E-07 M): 217828; HDAC10 raw activity signal ([3]; Conc. 4.12E-08 M): 237632; HDAC10 raw activity signal ([3]; Conc. 4.57E-09 M): 278288; HDAC10 raw activity signal ([3]; Conc. 5.08E-10 M): 236379

Reference: article PMC8185074, “Anchor extension: a structure-guided approach to design cyclic peptides targeting enzyme active sites” (Nature Communications, 2021)
